Data from paper PMC9090717, “Fullerenemalonates inhibit amyloid beta aggregation, in vitro and in silico evaluation” (RSC Advances, 2018).
Values joined by “and” are separate entries in the source; they are usually repeats but may differ in a detail not shown here. Equal entries are not always repeated. Where two headings read alike, the source gives them in different places.

Legend:
Aβ42 = settings: cited from earlier work
[1] = system: SH-SY5Y neuroblastoma cells; settings: human, 24 h, 13 μM
Method: (§1) The neuroblastoma cell lines SH-SY5Y (ATCC) were grown in 25 cm^2 flasks at 37 °C with 5% CO2 in advanced DMEM/F-12 medium (Sigma-Aldrich), supplemented with 10% fetal bovine serum (Invitrogen); for cytotoxicity assay, cells were seeded at a density of 1 × 10^4 in triplicate per sample in a 96 well microplate 24 h before the treatment. The fullerenemalonates were incubated for 24 h at the corresponding concentration for their ability to inhibit Aβ42 aggregation, 13 μM. Likewise, the vehicles of each fullerenemalonate other than water (acetonitrile and ethanol) were assessed to validate its toxicity. The cell viability assay was evaluated using Thiazolyl Blue Tetrazolium Bromide (MTT, Sigma-Aldrich); based on the conversion of MTT to water-insoluble MTT-formazan of dark blue color by the mitochondrial dehydrogenases of living cells. The absorbance of formazan was measured at a wavelength of 570 nm in a plate reader, iMark Biorad. For a cytotoxic concentration (CC50) the fullerenemalonates were incubated at different concentrations followed by a cell viability assay. The CC50 was determined from the curves obtained by fitting the average absorbance values in three independent experiments in the 10–80 μM fullerenemalonate concentration range.

[2] = design: method as in PMID 16853553; settings: aqueous solution; cited from earlier work
[3] = system: SH-SY5Y neuroblastoma cells; test: MTT cell viability assay; settings: 13 μM, 24 h, normalized to control
Method: as §1

1,2-(dimethoxymethano) fullerene
IC50 (Aβ42; Aβ42 concentration 20 μM, read-out: IC50, inhibition of Aβ peptide aggregation): ~9 µM

CCOC(=O)C1(C(=O)OCC)C23c4c5c6c7c8c4-c4c2c2c9c%10c%11c%12c(c-5c5c%13c%14c%15c%16c%17c(c-7c7c%18c%19c%20c%21c(c4C%204C(C(=O)OCC)(C(=O)OCC)C874)c2c2c9c4c%11c7c(c%13%12)c%14c8c%16c9c(c%18%17)c%19c%11c%21c2c2c4c7c8c9c%112)C%152C(C(=O)OCC)(C(=O)OCC)C652)C%1013 (stereo not drawn) [C3-C63(COOEt)6]
Cell survival rate (%) [1]: 78.59 ± 0.22%

CCOC(=O)C1(C(=O)OCC)C23c4c5c6c7c8c9c(c%10c%11c2c2c4c4c%12c5c5c6c6c8c8c%13c9c9c%10c%10c%11c%11c2c2c4c4c%12c%12c5c5c6c8c6c8c%13c9c9c%10c%10c%11c2c2c4c4c%12c5c6c5c8c9c%10c2c45)C713 [C61(COOEt)2]
Cell survival rate (%) [1]: 65.65 ± 0.29%

O=C([O-])C1(C(=O)[O-])C23c4c5c6c7c8c9c(c%10c%11c2c2c4c4c%12c5c5c6c6c8c8c%13c9c9c%10c%10c%11c%11c2c2c4c4c%12c%12c5c5c6c8c6c8c%13c9c9c%10c%10c%11c2c2c4c4c%12c5c6c5c8c9c%10c2c45)C713.[Na+].[Na+] [C61(COONa)2]
Average hydrodynamic radius Rh of self-assembled particles [2]: ≈ 32 nm
Cell survival rate (%) [3]: 64% and 64.34 ± 0.30%

sodium fullerenolate
Anti-amyloid activity in Aβ42 (Aβ42): strong anti-amyloid activity
